PMC6302903, “Protein and Chemical Determinants of BL-1249 Action and Selectivity for K2P Channels” (ACS Chemical Neuroscience, 2018)
≈ marks a conversion by molar mass, not a printed value.

Legend:
K2P2.1(TREK-1)GGG = molecular target: T1, K2P2.1(TREK-1)GGG (Mus musculus, UniProt P97438, D309G/I307G); assay: TEVC of triple-glycine mutant uncoupling the C-terminal tail; type: cell-based; conditions: Xenopus oocytes
T1 construct: expressed in transfected cells; host or cells: Xenopus laevis oocytes, mRNA injected
T1 sequence (P97438 1-411 isoform P97438-2 I292G/D294G): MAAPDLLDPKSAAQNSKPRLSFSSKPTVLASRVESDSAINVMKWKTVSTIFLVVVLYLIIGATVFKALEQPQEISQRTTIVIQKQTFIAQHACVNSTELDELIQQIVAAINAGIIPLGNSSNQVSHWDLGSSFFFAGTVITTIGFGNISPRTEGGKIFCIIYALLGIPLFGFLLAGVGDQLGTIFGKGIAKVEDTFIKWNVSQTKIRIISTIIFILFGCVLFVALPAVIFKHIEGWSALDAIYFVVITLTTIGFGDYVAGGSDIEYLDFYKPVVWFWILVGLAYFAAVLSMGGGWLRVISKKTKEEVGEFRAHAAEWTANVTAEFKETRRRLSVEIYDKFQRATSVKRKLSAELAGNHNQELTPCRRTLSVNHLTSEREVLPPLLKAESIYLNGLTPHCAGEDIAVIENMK
Excerpt: Gating stimuli detected by sensors in various parts of the channel converge on the K2P selectivity filter C-type gate.[6],[8],[10],[12],[35] Because the C-terminal tail is the sensor for K2P2.1(TREK-1) activation by both physiological[41]−[46] and chemical[45],[47] activators, we asked whether uncoupling the C-terminal tail from the channel using a triple-glycine mutant at the M4/C-terminal tail junction, K2P2.1(TREK-1)GGG,[41] impacted the BL-1249 response. […]
(§1) Xenopus laevis oocytes were harvested in accordance with UCSF IACUC protocol AN129690 and digested in calcium-free ND-96 (96 mM NaCl, 2 mM KCl, 3.8 mM MgCl2) immediately following harvest, as previously described.[6],[10] […] Defolliculated stage V–VI oocytes were injected with 0.2–6.0 ng of mRNA in 50 nL, and currents were recorded 24–48 h after injection. mRNA was synthesized from plasmid DNA using mMessage mMachine Kit (T7 promoter, Ambion, Life Technologies) and purified using RNEasy Kit (Qiagen). […] Once stabilized basal currents were recorded, compounds were perfused at various concentrations in standard ND96 and currents were allowed to increase to stabilization before recording final current. Fold activation upon compound application is expressed as I/I0 (0 mV), derived from the current at 0 mV in the presence of compound divided by the basal current at 0 mV in standard ND96 without compound. […]

K2P2.1(TREK-1) W275S = molecular target: T2, K2P2.1(TREK-1) W275S (Mus musculus, UniProt P97438, W290S); assay: TEVC of C-type gate activating mutant W275S; type: cell-based; conditions: Xenopus oocytes
T2 construct: expressed in transfected cells; host or cells: Xenopus laevis oocytes, mRNA injected
T2 sequence (P97438 1-411 isoform P97438-2 W275S): as the sequence (P97438 1-411 isoform P97438-2 I292G/D294G) above, with W275S, G292I, G294D counted along it
Excerpt: Diverse types of physical and chemical stimuli activate K2P2.1(TREK-1) by stabilizing the C-type gate and switching the channel into a “leak” mode that is characterized by a loss of outward rectification of the potassium current.[6],[8] Accordingly, we used inside-out patch clamp experiments of K2P2.1(TREK-1) expressed in HEK293 cells to test whether BL-1249 acts on the C-type gate. […] Together with previous single point concentration studies showing the insensitivity of K2P2.1(TREK-1) W275S in mammalian cells,[40] our data provide definitive evidence that BL-1249 activates K2P2.1(TREK-1) by stimulating the C-type gate. […]
as §1, with “current.” for “current. Fold activation upon compound application is expressed as I/I0 (0 mV), derived from the current at 0 mV in the presence of compound divided by the basal current at 0 mV in standard ND96 without compound.”

[1] = BL-1249 solubility limit in recording solution; type: physicochemical; conditions: standard ND96 recording solution
Protocol: (§2) BL-1249 activates K2P2.1(TREK-1)[18],[40] and K2P10.1(TREK-2),[7] but its effects on other K2P channels have not been characterized. […] In order to test if the original 10 μM assay had missed BL-1249 effects in other K2P channels, we tested concentrations of BL-1249 up to the solubility limit (∼80 μM) against the other K2P subfamily representatives.

K2P10.1(TREK-2) = molecular target: T3, K2P10.1(TREK-2) (Mus musculus, UniProt Q8BUW1); assay: TEVC of K2P10.1(TREK-2) in Xenopus oocytes; type: cell-based
T3 construct: expressed in transfected cells; host or cells: Xenopus laevis oocytes injected with mRNA made from pGEMHE/pMO
T3 sequence (Q8BUW1 whole entry): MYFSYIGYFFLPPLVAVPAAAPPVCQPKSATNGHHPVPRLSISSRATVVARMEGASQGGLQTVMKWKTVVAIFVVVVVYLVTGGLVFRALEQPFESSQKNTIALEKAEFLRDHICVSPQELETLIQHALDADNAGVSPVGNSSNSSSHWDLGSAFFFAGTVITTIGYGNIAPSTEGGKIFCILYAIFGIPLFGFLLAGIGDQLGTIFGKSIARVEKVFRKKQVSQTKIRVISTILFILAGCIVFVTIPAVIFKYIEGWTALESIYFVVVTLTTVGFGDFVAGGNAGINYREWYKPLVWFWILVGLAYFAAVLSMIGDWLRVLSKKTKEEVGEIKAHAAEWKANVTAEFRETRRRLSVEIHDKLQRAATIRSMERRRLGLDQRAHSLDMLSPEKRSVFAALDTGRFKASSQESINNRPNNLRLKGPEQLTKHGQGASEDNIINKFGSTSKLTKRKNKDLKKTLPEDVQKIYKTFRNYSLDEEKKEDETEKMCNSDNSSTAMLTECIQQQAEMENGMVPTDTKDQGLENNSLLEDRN
Excerpt: Constructs for murine K2P channels, including K2P2.1(TREK-1) (Gene ID 16526), K2P10.1(TREK-2) (Gene ID 72258), K2P4.1(TRAAK) (Gene ID 16528), K2P5.1(TASK-2) (Gene ID 16529), K2P3.1(TASK-1) (Gene ID 16527), K2P9.1(TASK-3) (Gene ID 223604), and K2P18.1(TRESK) (Gene ID 332396) in pGEMHE/pMO, were used for Xenopus oocyte experiments as previously described.[10],[26] Murine K2P2.1(TREK-1) (Gene ID 16526) was expressed in HEK-293 cells using a pIRES-EGFP construct as previously described.[26] Murine K2P13.1(THIK-1) (Gene ID 217826) and K2P1.1(TWIK-1) (Gene ID 16525) were cloned into pGEMHE/pMO for use in Xenopus oocytes. […]
as §1, with “current.” for “current. Fold activation upon compound application is expressed as I/I0 (0 mV), derived from the current at 0 mV in the presence of compound divided by the basal current at 0 mV in standard ND96 without compound.”

K2P18.1(TRESK) = molecular target: T4, K2P18.1(TRESK) (Mus musculus, UniProt Q6VV64); assay: TEVC of K2P18.1(TRESK) in Xenopus oocytes; type: cell-based; conditions: concentrations up to the solubility limit (∼80 μM)
T4 construct: expressed in transfected cells; host or cells: Xenopus laevis oocytes (mRNA injection, pGEMHE/pMO)
T4 sequence (Q6VV64 whole entry): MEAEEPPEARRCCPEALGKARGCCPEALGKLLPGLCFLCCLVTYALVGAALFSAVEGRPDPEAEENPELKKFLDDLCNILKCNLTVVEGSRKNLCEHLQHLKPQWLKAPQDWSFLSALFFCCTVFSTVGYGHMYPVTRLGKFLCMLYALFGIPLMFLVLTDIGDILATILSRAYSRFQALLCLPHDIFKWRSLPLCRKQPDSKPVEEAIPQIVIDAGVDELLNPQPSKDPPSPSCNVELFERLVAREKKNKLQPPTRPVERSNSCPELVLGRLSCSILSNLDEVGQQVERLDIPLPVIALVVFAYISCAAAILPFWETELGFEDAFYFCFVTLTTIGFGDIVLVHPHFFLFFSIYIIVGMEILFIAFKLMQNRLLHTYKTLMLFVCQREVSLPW
Protocol: as §2, with “representatives. […]” for “representatives.”
as §1, with “compound. Data were analyzed and plotted using Graphpad Prism Version 5 (GraphPad Software, San Diego California USA, www.graphpad.com).” for “compound.”

In the case of c1ccc(-c2nnn[nH]2)c(Nc2cccc3c2CCCC3)c1 [BL-1249, (5,6,7,8-tetrahydro-naphthalen-1-yl)-[2-(1H-tetrazol-5-yl)-phenyl]-amine], the EC50 (K2P2.1(TREK-1)GGG) is reported as 19 ± 1 µM, the EC50 (K2P2.1(TREK-1) W275S) is reported as > 60 µM and the “sensitivity of K2P2.1(TREK-1) W275S to compound” value (K2P2.1(TREK-1) W275S) is reported as “insensitive”. For the same compound, the solubility [1] was ~80 µM (≈ 23.3 µg/mL), the EC50 (K2P10.1(TREK-2); I/I0 at 0 mV) was 8 ± 0.8 µM and the “K2P10.1(TREK-2) current response” value (K2P10.1(TREK-2); extracellular application of 10 μM) was “clear activation responses”. For the same compound, the “activation of K2P18.1(TRESK)” value (K2P18.1(TRESK)) was “failed to find evidence for activation”.
